Source: patent publication EP4420661B1, “SMALL MOLECULES TARGETING GLYCOPROTEIN VI AS ANTIPLATELET AGENTS FOR USE IN THE PREVENTION AND/OR TREATMENT OF THROMBOSIS AND ASSOCIATED PATHOLOGIES” (Universidade de Santiago de Compostela, priority 2023, dated 2024)

Experiments:
Type in all cases: in vitro ADME
[1] = tested on: Plasma protein; test: plasma protein binding, Rapid Equilibrium Dialysis (RED), rat; conditions: 5 µM, 4h at 37°C
Procedure: (§1) Plasma from Seralab was employed in the assay and was carried out by employing Rapid Equilibrium Dialysis (RED) from Thermo Scientific.
(§2) The compounds were dissolved at 5 µM in plasma and added to the corresponding insert of the RED device. Dialysis buffer was added to the corresponding insert of the RED device. Plate was incubated for 4h at 37°C.
(§3) After the incubation period 50 µL aliquots of each chamber were transferred to empty vials. 50 µL of dialysis buffer were added to the plasma samples and 50 µL of plasma were added to the buffer samples. 300 µL of acetonitrile were added to all the samples and centrifuged at 4000 rpm 100 µL aliquots of the supernatants were transferred to a LC analysis plate. Samples were analyzed in a UPLC/MS/MS. Stationary phase: Acquity UPLC® BEHC18 1,7 µm (2.1 mm x 50 mm) (Waters). Gradient: A (H2O + 0.1% Formic acid); B (ACN + 0.1% Formic acid); Flow: 0.6mL/min Table 8: UPLC gradient / Protein binding assay
(§4) The chromatographic equipment employed was an ACQUITY UPLC / Xevo TQD System. Compound concentrations were calculated from the MS peak areas. Table 9: Plasma protein binding of the compounds of formula (I) in rat, mice, dogs and humans / (*) low recovery

[2] = as above; conditions: 4h at 37°C
Procedure: as §1, §2, §3, §4

[3] = tested on: Plasma protein; test: plasma protein binding, Rapid Equilibrium Dialysis (RED), mouse; conditions: 5 µM, 4h at 37°C, (*) low recovery for (If)
Procedure: as §1, §2, §3, §4

[4] = as above; conditions: 4h at 37°C, (*) low recovery for (If)
Procedure: as §1, §2, §3, §4

## O=C(Cc1ccc2c(c1)OCCO2)Nc1nc(-c2ccc3c(c2)CCC(=O)N3)cs1 [Compound (If)]
[1]
  Unbound fraction: 0.10%
[2]
  fraction unbound at 4 h, 5 µM: 0.001
[3]
  Unbound fraction: 0.46%
[4]
  fraction unbound at 4 h, 5 µM: 0.0046
